This is an account of results in patent US20090298813A1, “USE OF NEUROPROTECTIVE COMPOUNDS IN OBTAINING MEDICAMENTS INTENDED FOR THE TREATMENT OF NEURODEGENERATING DISEASES” (LES LABORATOIRES SERVIER, priority 2007, published 2009).

The subject of one assay is newborn mice. Kind of assay: Protection from neurodegeneration caused by ibotenate in newborn mice. The assay is classed as in vivo, mouse. As to conditions: 20 mg/kg i.p.; for Reduction in the size of lesions relative to the controls, cortex / Reduction in the size of lesions relative to the controls, white matter: simultaneous injection at 0 h. The protocol:
Ibotenate, an agonist of N-methyl-D-aspartate (NMDA) receptors, when administered by the intracerebral route to the newborn mouse, brings about lesions of excitotoxic origin in the neocortex and the underlying white matter.
The ibotenate injection is performed in newborn mice aged 5 days (P5). The compounds of the invention are administered by the i.p. route at a dose of 20 mg/kg [either simultaneously] (P5), [or 8, 24 or 48 hours after induction of the lesions]. […] Cell markers were applied to the brain slices of animals sacrificed at various times after administration of ibotenate and the compound of the invention: (1) cleaved caspase-3, an apoptosis marker; (2) isolectin, a microglial activation marker; (3) glial fibrillary acidic protein (GFAP), a marker of astrogliosis.

The subject of assay [1] is mixed (neurons and glia) primary embryonic mesencephalic cultures. Briefly: Neuroprotective and neurotrophic effects in an in vitro model of neurodegeneration (epoxomicin). As to conditions: for increase in neuronal survival with respect to their control (neuroprotective): at 100 μM, in the presence of epoxomicin (50 nM), 48 hours.
A further assay has as its system glial cells. Briefly: Protection from apoptosis caused in vitro in cultures of glial cells (OGD followed by reperfusion). The following applies: 10 μM throughout OGD (3 h) and reperfusion (18 h); relative to control cultures subjected to OGD and reperfusion. Format: cell-based, Sprague Dawley rats. The protocol:
A study was carried out to determine if the compounds of the invention protect cultures of glial cells from the apoptosis brought about by oxygen and glucose deprivation (OGD) followed by reperfusion.
Glial cells are isolated from the brains of newborn Sprague Dawley rats and cultured. They are subjected to OGD for 3 hours by being placed in a glucose-free medium under anaerobic conditions in an incubator (5% CO2, 95% N2).
Reperfusion is carried out by returning the cultures for 18 hours to the normal medium [Dulbecco's modified Eagle […] (DMEM)], to which 10% fetal calf serum, 2 mM glutamine and 50 μg/ml of gentamicin have been added.
At the end of the OGD period, the adenosine triphosphate (ATP) content of the cultures is measured in order to assess the degree of ischaemia, using the BIOLUMINESCENT kit (luciferase luminescence).
The degree of apoptosis is quantified by counting the astrocyte nuclei labelled with the DNA-specific HOECHST 33258 fluorescent dye.
The compounds of the invention are added to the medium at a concentration of 10 μM throughout the OGD and reperfusion period.
The results are expressed as the percentage reduction in cell death relative to control cultures subjected to ischaemia by means of OGD and reperfusion.

The next assay concerns mouse striatum. Kind of assay: Glial reaction in a 6-OHDA model of Parkinson's disease in the mouse. The assay is classed as in vivo. As to conditions: for microglial reactivity: single i.p. injection of 20 mg/kg. The protocol:
Unilateral injection of 6-OHDA into the mouse striatum using a micro-syringe (0.5 μl of a solution containing 8 μg/μl) causes, from the 3rd day, degeneration of the TH-positive neurons of the striatum, which is accompanied, from the 7th day, by neuronal loss also in the substantia nigra, in accordance with that which is observed. in Parkinson's disease in humans.
The compounds of the invention are administered by the intraperitoneal route in a single injection of 20 mg/kg 10 minutes after the intracerebral injection of 6-OHDA. One group of mice is sacrificed at 3 days, the other at 7 days.

In assay [2] the test system is dopaminergic neurons of primary rat mesencephalic cultures. Kind of assay: Neuroprotective effects and stimulation of the catecholaminergic phenotype in vitro (spontaneous death of dopaminergic neurons). The assay is classed as cell-based. The protocol:
The study is carried out in an in vitro model of primary rat mesencephalic cultures, wherein death of the dopaminergic neurons develops spontaneously and selectively when the cells mature. The culture conditions have been defined in detail in various publications (Douhou et al., J. of Neurochemistry, (2001), 78, 163-174). The culture media are changed daily and, under these conditions, the dopaminergic neurons, but not the other neurons such as GABA-ergic neurons, degenerate spontaneously. Natural trophic factors of the body such as GDNF (glial cell derived neurotrophic factor) have shown a protective effect on the dopaminergic neurons in this model.
The effects of Examples 1 and 12 were tested at 3 concentrations. The effect is analysed by measuring the rate of tritiated dopamine uptake and the number of surviving neurons by labelling the tyrosine hydroxylase with a fluorescent antibody.

Where [3] appears, read: epoxomicin 50 nM, after 48 hours.

As a reminder, the EC50 is the concentration at which the effect is half-maximal.

In the case of `O=C(Nc1cccnc1)NN1CCc2ccccc21` [Example 13, N-(2,3-Dihydro-1H-indol-1-yl)-N′-(3-pyridyl)urea], in the assay on newborn mice (sacrifice at 120 h), the “Reduction in the size of lesions relative to the controls, cortex” value is listed as 28% and the “Reduction in the size of lesions relative to the controls, white matter” value came to 11%. Moreover, in assay [1], the “increase in neuronal survival with respect to their control (neuroprotective)” value was roughly 145%.

In the case of `CC[C@H](C)[C@H](NC(=O)[C@H]([C@@H](C)CC)N(C)C(C)=O)C(=O)N[C@H](C(=O)N[C@@H](CC(C)C)C(=O)[C@@]1(C)CO1)[C@@H](C)O` [epoxomicin, reference compound], in assay [1] (setting [3]), the “loss over all of the cell population relative to the cells not treated with epoxomicin” value is “less than 70%” and the “neuronal loss relative to the untreated cells” value stood at 82%.

As for `CN1CCN(CCN2CCC=C(C(=O)Nn3ccc4ccccc43)C2)CC1` [Example 9, N-(Indol-1-yl)-1-[2-(4-methylpiperazin-1-yl)ethyl]-1,2,5,6-tetrahydropyridine-3-carboxamide], the “Reduction in cell death, % reduction” value in the assay on glial cells is on record as 44%. In the assay on newborn mice (sacrifice at 120 h), the “Reduction in the size of lesions relative to the controls, cortex” value is on record as 50% and the “Reduction in the size of lesions relative to the controls, white matter” value is listed as 56%. In addition, the EC50 in assay [1] (Rattus norvegicus, Neuron, 48 h, read-out: EC50 (neurotrophic)) was found to be 10.5 µM.

`C=CCN1CCC[C@@H]2C(=O)N3c4ccccc4C[C@@H]3[C@H]21` (racemic) [Example 11, (4aSR,11aRS,11bSR)-1-Allyl-1,2,3,4,4a,11,11a,11b-octahydropyrido[2′,3′:3,4]pyrrolo-[1,2-a]indol-5-one]: the “Reduction in cell death, % reduction” value in the assay on glial cells was 44%.

Regarding `O=C1NC(=O)N2c3ccccc3C3CCN4CCCC1C4C32` (single isomer, unassigned) [Example 8, (5aS,12aR,12bR,12cR)- or (5aR,12aS,12bS,12cS)-2,3,5a,12a,12b,12c-Hexahydro-1H,4H-3a,9b,11-triazabenzo[a]naphtho[2,1,8-cde]azulene-10,12(5H,11H)-dione (enantiomer ,β)], the “increase in neuronal survival with respect to their control (neuroprotective)” value in assay [1] is roughly 75%.

As to `O=C1NC(=O)N2c3ccccc3[C@@H]3CCN4CCC[C@@H]1[C@@H]4[C@@H]32` (single isomer, unassigned) [Example 7, (5aS,12aR,12bR,12cR)- or (5aR,12aS,12bS,12cS)-2,3,5a,12a,12b,12c-Hexahydro-1H,4H-3a,9b,11-triazabenzo[a]naphtho[2,1,8-cde]azulene-10,12(5H,11H)-dione (enantiomer α)], the “Reduction in cell death, % reduction” value in the assay on glial cells is recorded as 35%.

On to `CCOC(=O)C1=CCCN(CCN2CCC=C(C(=O)Nn3ccc4ccccc43)C2)C1` [Example 4, N-(Indol-1-yl)-1-[2-[3-(ethoxycarbonyl)-1,2,5,6-tetrahydropyridin-1-yl]ethyl]-1,2,5,6-tetrahydropyridine-3-carboxamide], for which, in the assay with glial cells, the “Reduction in cell death, % reduction” value is 60%.

As to `CN1CCN(CCN2CCC=C(C(=O)Nn3ccc4cc(Cl)ccc43)C2)CC1` [Example 3, N-(5-Chloroindol-1-yl)-1-[2-(4-methylpiperazin-1-yl)ethyl]-1,2,5,6-tetrahydropyridine-3-carboxamide], in the assay with newborn mice (sacrifice at 24 h), the “Reduction in the intensity of markers relative to the controls, Cleaved caspase-3 (apoptosis)” value stood at 56%; the “Reduction in the intensity of markers relative to the controls, Isolectin (microglial activation)” value was determined as 50%; the “Reduction in the size of lesions relative to the controls, cortex” value worked out at 53%; the “Reduction in the size of lesions relative to the controls, white matter” value is recorded as 70%. Moreover, in the assay on newborn mice (sacrifice at 120 h), the “Reduction in the intensity of markers relative to the controls, GFAP (astrogliosis)” value is reported as 44%; the “Reduction in the size of lesions relative to the controls, cortex” value amounted to 50%; the “Reduction in the size of lesions relative to the controls, white matter” value was 56%. For the same compound, the “reduction of the area occupied by the astrocytes (GFAP) in the striatum” value with mouse striatum (single i.p. injection of 20 mg/kg 10 minutes after 6-OHDA, assessed at 7 days, relative to control group (6-OHDA and solvent)) worked out at 28%. In the assay with mouse striatum (at 3 days), the microglial reactivity entry is given as “remains increased”. The microglial reactivity result in the assay with mouse striatum (at 7 days) is reported as “reduced”.

As for `O=C1NN2c3ccccc3C[C@H]2[C@@H]2NCCC[C@H]12` (racemic) [Example 6, (4aSR,11aSR,11bRS)-1,2,3,4,4a,11,11a,11b-Octahydro-1,6,6a-triaza-benzo[a]fluoren-5-one], in the assay with glial cells, the “Reduction in cell death, % reduction” value is 22%.

For `O=C(Nc1cccnc1)Nn1ccc2ccccc21` [Example 12, N-(1H-Indol-1-yl)-N′-(3-pyridyl)urea], the “Reduction in cell death, % reduction” value with glial cells worked out at 59%. In addition, in the assay on newborn mice (sacrifice at 120 h), the “Reduction in the size of lesions relative to the controls, cortex” value was determined as 64% and the “Reduction in the size of lesions relative to the controls, white matter” value is reported as 58%. In assay [2], the “cell survival (number of surviving neurons, tyrosine hydroxylase labelling)” value was “significantly increase” and the “rate of tritiated dopamine uptake” value is on record as “significantly increase”.

On to `O=C(Nn1ccc2ccccc21)C1=CCCN(CCN2CCCCC2)C1` [Example 10, N-(Indol-1-yl)-1-(2-piperidin-1-yl-ethyl)-1,2,5,6-tetrahydropyridine-3-carboxamide], for which the “Reduction in cell death, % reduction” value in the assay with glial cells came to 60%.
